Reference: patent US20220175761A1, “BI-LIGAND DRUG CONJUGATE AND USE THEREOF” (COHERENT BIOPHARMA (SUZHOU), LIMITED, priority 2019, published 2022)
Numbered stars: 1 amine (or outer) side, 2 acyl side, 3 side chain; on linkers, the order of the positions; unused ones are H or OH. Bridge positions count the residues as written; N and C are the ends. Square brackets hold non-standard residues; d marks the D form. Peptide text beside a SMILES is read from it. I, II: the chains in the order shown. * marks the point of attachment. ξ: configuration not given here. Exatecan = CC[C@@]1(O)C(=O)OCc2c1cc1n(c2=O)Cc2c-1nc1cc(F)c(C)c3c1c2[C@@H](N*)CC3; Hexanoyl(6-succinimido-3yl) = O=C1CC([*:1])C(=O)N1CCCCCC(=O)[*:2]; EuK = O=C(O)CC[C@H](NC(=O)N[C@@H](CCCCN*)C(=O)O)C(=O)O; Pteroyl = Nc1nc2ncc(CNc3ccc(C(=O)*)cc3)nc2c(=O)[nH]1; Dolaproine = CO[C@@H]([C@@H]1CCCN1)[C@@H](C)C(=O)O; Dil = CC[C@H](C)[C@H](NC)[C@@H](CC(=O)O)OC; X3 = O=C1CC([*:2])C(=O)N1CCCCCC(=O)[*:1]; γGlu = O=C(O)[C@H](CCC(=O)[*:2])N[*:1]; PABC = O=C(OCc1ccc(N[*:1])cc1)[*:2]; NHCH2OCH2CO = O=C(COCN[*:1])[*:2]; X1 = C[C@@H](N*)[C@@H](O)c1ccccc1; X2 = O=C(Cc1ccc(CN[*:1])cc1)[*:2]; NMeV = CN[C@H](C(=O)O)C(C)C; ξCit = NC(=O)NCCCC(N)C(=O)O; CO = O=C([*:1])[*:2]; ξV = CC(C)C(N)C(=O)O; ξC = NC(CS)C(=O)O

Key:
[1] = tested on: lung cancer PDX model LU2505; experiment: Effectiveness in lung cancer LU2505 model (PDX model); assay type: in vivo, BALB/c nude mice
Source text: The active substance of test sample CBP-1018 is CB-20BK, which is obtained by mixing CB-20BK with auxiliary materials and then lyophilizing same.

[2] = tested on: lung cancer PDX model LU1206; experiment: Effectiveness in lung cancer LU1206 model (PDX model); assay type: in vivo, BALB/c nude mice
Experimental: BALB/c nude mice bore tumors subcutaneously and, when the tumor volume reached about 150 mm^3, were grouped into: low-dose, medium-dose and high-dose test sample groups, a small molecule MMAE control group, a targeting polypeptide 20BK-SM09 control group, and a blank control group (a total of 6 groups, and 8 mice per group); the mice were administered on day 1, day 8 and day 15 after the grouping; and the observation was continued for 14 days after the last administration.

[3] = target: T1, FOLR1 (Homo sapiens, UniProt P15328); experiment: BIAcore T200 binding affinity to FOLR1 (CM5 chip conjugated with FOLR1); conditions: BIAcore T200
T1 construct: purchased R&D System 5646-FR
Source text: Buffer: HBS-EP+ buffer 10× (GE, Cat #: BR100669), diluted 10 folds with deionized water before use.
In the experiment, CM5 chip was conjugated with ligand FOLR1 (R&D System, Cat #: 5646-FR).

[4] = tested on: LNCaP (human prostate cancer cells); experiment: Inhibition of cell line proliferation, CCK8; assay type: cell-based; conditions: LNCaP
Source text: (§1) Since different cells have different sensitivity to a cell proliferation inhibitory toxicity of the payload in a ligand conjugate, the quantitative analysis may be interfered occasionally. A series of cell lines with known expression levels of receptors of different ligands were selected and tested for the response to inhibitory effects of the cell proliferation of a ligand conjugate and a single payload. The IC50 ratio of a single payload to that of a ligand conjugate in same cell line were taken to remove such interference.
Experimental operations: LNCaP and 22RV1 cells were prepared in advance, counted, and plated in 96-well cell culture plates at a cell density of 4×10^4 cells/ml and 2.0×10^4 cells/ml, respectively (100 μl/well); negative control and blank control wells were set on each plate. After adherent cell culture overnight, the diluted samples to be tested were added at 50 μl/well. The plates were placed in an incubator at 37° C., 5% CO2 and cultured for 68-72 hours. To each well, 15 μl (10% of the liquid volume in a well) of a color developing solution from CCK8 was added; and the plates were incubated at 37° C. for 45-70 minutes and each plate was read at 450 nm on a microplate reader. The data was edited using SoftMax Pro and a 4-P fitting curve was plotted. […]

[5] = tested on: 22RV1 (human prostate cancer cells); experiment: Inhibition of cell line proliferation, CCK8; assay type: cell-based
Source text: as §1
(§2) Experimental operations: LNCaP and 22RV1 cells were prepared in advance, counted, and plated in 96-well cell culture plates at a cell density of 4×10^4 cells/ml and 2.0×10^4 cells/ml, respectively (100 μl/well); negative control and blank control wells were set on each plate. After adherent cell culture overnight, the diluted samples to be tested were added at 50 μl/well. The plates were placed in an incubator at 37° C., 5% CO2 and cultured for 68-72 hours. To each well, 15 μl (10% of the liquid volume in a well) of a color developing solution from CCK8 was added; and the plates were incubated at 37° C. for 45-70 minutes and each plate was read at 450 nm on a microplate reader. The data was edited using SoftMax Pro and a 4-P fitting curve was plotted.

[6] = tested on: CFPAC-1 (human pancreatic cancer cells); experiment: Inhibition of cell line proliferation, CCK8; assay type: cell-based; conditions: CFPAC-1, 68-72 hours, CCK8
Experimental: as §2, with “PANC-1” for “LNCaP”, “CFPAC-1” for “22RV1”, “cells/ml” for “cells/ml and 2.0×10^4 cells/ml, respectively”
(§3) Experimental operations: LNCaP, SK-BR-3, NCI-H226, CFPAC-1 and PANC-1 cells were prepared in advance and counted; with a culture medium (IMDM+10% FBS+1× L-Glutamine+1×P/S), the cells LNCaP, SK-BR-3 and CFPAC-1 were diluted to 4×10^4 cells/ml, NCI-H226 was diluted to 2.0×10^4 cells/ml and PANC-1 was diluted to 3.0×10^4 cells/ml; the diluted cell solution was plated in 96-well plates at 100 μl/well; and negative control and blank control wells were set on each plate. After adherent cell culture overnight, the diluted samples to be tested were added at 50 μl/well. The plates were placed in an incubator at 37° C., 5% CO2 and cultured for 68-72 hours. To each well, 15 μl (10% of the liquid volume in a well) of a color developing solution from CCK8 was added; and the plates were incubated at 37° C. for 45-70 minutes and each plate was read at 450 nm on a microplate reader. The data was edited using SoftMax Pro and a 4-P fitting curve was plotted.
(§4) Experimental Operations: LNCaP, SK-BR-3, MDA-MB-468 and CFPAC-1 cells were prepared in advance and counted; with a culture medium (IMDM+10% FBS+1× L-Glutamine+1×P/S), the cells LNCaP, SK-BR-3, MDA-MB-468 and CFPAC-1 were diluted to 4×10^4 cells/ml; the diluted cell solution was plated in 96-well plates at 100 µl/well; and negative control and blank control wells were set on each plate. After adherent cell culture overnight, the diluted samples to be tested were added at 50 μl/well. The plates were placed in an incubator at 37° C., 5% CO2 and cultured for 68-72 hours. To each well, 15 μl (10% of the liquid volume in a well) of a color developing solution from CCK8 was added; and the plates were incubated at 37° C. for 45-70 minutes and each plate was read at 450 nm on a microplate reader. The data was edited using SoftMax Pro and a 4-P fitting curve was plotted.
as §4, with “Operations: LNCaP, MDA-MB-468, CFPAC-1 and PANC-1” for “Operations: LNCaP, SK-BR-3, MDA-MB-468 and CFPAC-1”, “CFPAC-1 and PANC-1 cells were” for “MDA-MB-468 and CFPAC-1 cells were”, “cells LNCaP, MDA-MB-468 and” for “cells LNCaP, SK-BR-3, MDA-MB-468 and”, “to 4×10^4 cells/ml, and PANC-1 was diluted to 3.0×10^4 cells/ml; the” for “to 4×10^4 cells/ml; the”, “at 100 μl/well; and negative” for “at 100 µl/well; and negative”
Experimental operations: NCI-H226, CFPAC-1 and MDA-MB-468 cells were prepared in advance and counted; MDA-MB-468 and CFPAC-1 cells were plated at a density of 2×10^4 cells/ml (100 μl/well) and NCI-H226 cells were plated at a density of 1×10^4 cells/ml (100 μl/well) in 96-well plates; and negative control and blank control wells were set on each plate. After adherent cell culture overnight, the diluted samples to be tested were added at 50 μl/well. The plates were placed in an incubator at 37° C., 5% CO2 and cultured for 68-72 hours. […]

[7] = tested on: NCI-H226 (human lung cancer cells); experiment: Inhibition of cell line proliferation, CCK8; assay type: cell-based; conditions: NCI-H226, 68-72 hours, CCK8
Experimental: as §3
(§5) Experimental operations: NCI-H226, CFPAC-1 and MDA-MB-468 cells were prepared in advance and counted; MDA-MB-468 and CFPAC-1 cells were plated at a density of 2×10^4 cells/ml (100 μl/well) and NCI-H226 cells were plated at a density of 1×10^4 cells/ml (100 μl/well) in 96-well plates; and negative control and blank control wells were set on each plate. After adherent cell culture overnight, the diluted samples to be tested were added at 50 μl/well. The plates were placed in an incubator at 37° C., 5% CO2 and cultured for 68-72 hours. To each well, 15 μl (10% of the liquid volume in a well) of a color developing solution from CCK8 was added; and the plates were incubated at 37° C. for 45-70 minutes and each plate was read at 450 nm on a microplate reader. The data was edited using SoftMax Pro and a 4-P fitting curve was plotted.

[8] = tested on: MDA-MB-468 (human breast cancer cells); experiment: Inhibition of cell line proliferation, CCK8; assay type: cell-based; conditions: MDA-MB-468, 68-72 hours, CCK8
Experimental: as §4
as §4, with “Operations: LNCaP, MDA-MB-468, CFPAC-1 and PANC-1” for “Operations: LNCaP, SK-BR-3, MDA-MB-468 and CFPAC-1”, “CFPAC-1 and PANC-1 cells were” for “MDA-MB-468 and CFPAC-1 cells were”, “cells LNCaP, MDA-MB-468 and” for “cells LNCaP, SK-BR-3, MDA-MB-468 and”, “to 4×10^4 cells/ml, and PANC-1 was diluted to 3.0×10^4 cells/ml; the” for “to 4×10^4 cells/ml; the”, “at 100 μl/well; and negative” for “at 100 µl/well; and negative”
as §5

[9] = 10 mg/kg on day 1, 8, 15, euthanized on day 29

T1 sequence (P15328 25-233 limits assumed): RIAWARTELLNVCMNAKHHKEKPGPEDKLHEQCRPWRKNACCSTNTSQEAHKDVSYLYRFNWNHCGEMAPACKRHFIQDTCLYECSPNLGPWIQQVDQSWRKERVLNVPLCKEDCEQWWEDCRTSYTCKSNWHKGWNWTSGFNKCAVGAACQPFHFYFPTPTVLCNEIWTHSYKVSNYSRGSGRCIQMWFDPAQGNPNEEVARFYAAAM

NCCCC[C@H](CC(=O)[C@H](CC(=O)O)NC(=O)[C@H](CC(=O)O)NC(=O)Cc1ccc(CNC(=O)NCCCC[C@H](NC(=O)N[C@@H](CCC(=O)O)C(=O)O)C(=O)O)cc1)C(=O)N[C@@H](CS)C(=O)N[C@@H](CCCCNC(=O)CC[C@H](NC(=O)c1ccc(NCc2cnc3[nH]c(N)nc(=O)c3n2)cc1)C(=O)O)C(N)=O [20BK-SM09]
tumor growth inhibition effect (in words) ([1]; 10 mg/kg): no obvious tumor growth inhibition effect | Tumor volume ([1]; 10 mg/kg on day 1, 8, 15, D22): 2024.75 mm^3 | Tumor weight ([1]; 10 mg/kg on day 1, 8, 15, D22): 1811.5 (D22) mg | tumor growth inhibition effect (in words) ([2]; 10 mg/kg): no obvious tumor growth inhibition effect | Tumor volume ([2]; 10 mg/kg on day 1, 8, 15): 1158.80 mm^3 | Tumor weight [2, 9]: 914.36 mg | Tumor weight Inhibition ratio [2, 9]: −6.80%

CC[C@H](C)[C@@H]([C@@H](CC(=O)N1CCC[C@H]1[C@H](OC)[C@@H](C)C(=O)N[C@H](C)[C@@H](O)c1ccccc1)OC)N(C)C(=O)[C@@H](NC(=O)[C@H](C(C)C)N(C)C(=O)OCc1ccc(NC(=O)C(CCCNC(N)=O)NC(=O)[C@@H](NC(=O)CCCCCN2C(=O)CC(SCC(NC(=O)[C@H](CCCCN)NC(=O)[C@H](CC(=O)O)NC(=O)[C@H](CC(=O)O)NC(=O)Cc3ccc(CNC(=O)NCCCC[C@H](NC(=O)N[C@@H](CCC(=O)O)C(=O)O)C(=O)O)cc3)C(N)=O)C2=O)C(C)C)cc1)C(C)C (stereo partly drawn) [CB-20AK, reference compound] (I: V[ξCit][PABC][NMeV]V[Dil][Dolaproine]-X1 / II: {EuK-CO}-[X2]DDK[ξC]-NH2; linker I:N-II:5 via X3)
specific binding to FOLR1 (in words) [3]: has not been detected to specifically bind to FOLR1 | IC50 ratio (MMAE/conjugate) [4]: 0.025 | IC50 ([4]; 68-72 hours, CCK8): 102 nM | IC50 ratio (MMAE/conjugate) ([5]; 22RV1): 0.006 | IC50 ([5]; 22RV1, 68-72 hours, CCK8): 1050 nM

CC[C@@]1(O)C(=O)OCc2c1cc1n(c2=O)Cc2c-1nc1cc(F)c(C)c3c1c2[C@@H](NC(=O)COCNC(=O)CNC(=O)[C@H](Cc1ccccc1)NC(=O)CNC(=O)CNC(=O)CCCCCN1C(=O)CC(SC[C@H](NC(=O)CC[C@H](NC(=O)c2ccc(NCc4cnc5[nH]c(N)nc(=O)c5n4)cc2)C(=O)O)C(=O)N[C@@H](CCCCN)C(=O)N[C@@H](CCC(=O)O)C(=O)N[C@@H](Cc2ccccc2)C(=O)N[C@@H](CC(C)C)C(=O)N[C@@H](Cc2cnc[nH]2)C(=O)N2CCC[C@H]2C(=O)N[C@@H](CO)C(=O)N[C@@H](CCCCN)C(=O)NC(C(=O)N[C@@H](CC(=O)O)C(=O)N[C@@H](CC(C)C)C(=O)N2CCC[C@H]2C(=O)N[C@@H](CCCNC(=N)N)C(=O)O)C(C)C)C1=O)CC3 (stereo partly drawn) [CR19425] (I: {Pteroyl-γGlu}-CKEFLHPSK[ξV]DLPR-OH / II: GGFG[NHCH2OCH2CO]-Exatecan; linker I:1-II:N via Hexanoyl(6-succinimido-3yl))
IC50 [6]: 621 nM | IC50 [7]: 1010 nM | IC50 [8]: 951 nM
